Reference: patent US7683097B2, “Topoisomerase inhibitors” (Propharmacon Inc., priority 2004, dated 2010)
Like-named read-outs stand apart in the source and are kept apart here.

Columns and labels:
[1] = system: HL-60; assay: Cell proliferation assay, Leukemia HL-60; type: cell-based; settings: Homo sapiens, read-out: GI50 or IC50, Leukemia HL-60
Procedure: (§1) The compounds listed in Table III were prepared using the procedures outlined in the above Examples.

[2] = system: HL60-MX1 (MDR); assay: Cell proliferation assay, Leukemia HL60-MX1 (MDR); type: cell-based; settings: read-out: GI50 or IC50, Leukemia HL60-MX1 (MDR)
Procedure: as §1

[3] = system: NCI-H460; assay: Cell proliferation assay, NSC Lung Cancer NCI-H460; type: cell-based; settings: Homo sapiens, read-out: GI50 or IC50, NSC Lung Cancer NCI-H460
Procedure: as §1

[4] = system: H69-AR (MDR); assay: Cell proliferation assay, SC Lung Cancer H69-AR (MDR); type: cell-based; settings: Homo sapiens, H69AR; read-out: GI50 or IC50, SC Lung Cancer H69-AR (MDR)
Procedure: as §1

[5] = system: HCT-15; assay: Cell proliferation assay, Colon Cancer HCT-15; type: cell-based; settings: Homo sapiens, read-out: GI50 or IC50, Colon Cancer HCT-15
Procedure: as §1

[6] = system: SF-268; assay: Cell proliferation assay, CNS Cancer SF-268; type: cell-based; settings: Homo sapiens, read-out: GI50 or IC50, CNS Cancer SF-268
Procedure: as §1

[7] = system: SK-MEL-2; assay: Cell proliferation assay, Melanoma SK-MEL-2; type: cell-based; settings: Homo sapiens, read-out: GI50 or IC50, Melanoma SK-MEL-2
Procedure: (§2) The compounds listed in Table IV were prepared using the procedures outlined in the above Examples.

[8] = system: OVCAR-3; assay: Cell proliferation assay, Ovarian Cancer OVCAR-3; type: cell-based; settings: Homo sapiens, read-out: GI50 or IC50, Ovarian Cancer OVCAR-3
Procedure: as §2

[9] = system: MES-SA/Dx5; assay: Cell proliferation assay, Uterine MES-SA/Dx5; type: cell-based; settings: Homo sapiens, read-out: GI50 or IC50, Uterine MES-SA/Dx5
Procedure: as §2

[10] = system: UO-31; assay: Cell proliferation assay, Renal Cancer UO-31; type: cell-based; settings: Homo sapiens, read-out: GI50 or IC50, Renal Cancer UO-31
Procedure: as §2

[11] = system: PC-3; assay: Cell proliferation assay, Prostate Cancer PC-3; type: cell-based; settings: Homo sapiens, read-out: GI50 or IC50, Prostate Cancer PC-3
Procedure: as §2

[12] = system: MCF-7; assay: Cell proliferation assay (panel), Breast Cancer MCF-7; type: cell-based; settings: Homo sapiens, MCF7; read-out: GI50 or IC50, Breast Cancer MCF-7
Procedure: as §2

[13] = system: NCI-ADR; assay: Cell proliferation assay, Breast Cancer NCI-ADR; type: cell-based; settings: Homo sapiens, NCI/ADR-RES; read-out: GI50 or IC50, Breast Cancer NCI-ADR
Procedure: as §2

[14] = biological target: T1, human Topo IIα (Homo sapiens, UniProt P11388); assay: Topo IIα decatenation inhibition assay (kDNA, agarose gel); type: biochemical; settings: sample gel, FIG. 2; kDNA substrate
T1 construct: purchased Topogen Inc. Columbus, Ohio
T1 sequence (P11388 whole entry): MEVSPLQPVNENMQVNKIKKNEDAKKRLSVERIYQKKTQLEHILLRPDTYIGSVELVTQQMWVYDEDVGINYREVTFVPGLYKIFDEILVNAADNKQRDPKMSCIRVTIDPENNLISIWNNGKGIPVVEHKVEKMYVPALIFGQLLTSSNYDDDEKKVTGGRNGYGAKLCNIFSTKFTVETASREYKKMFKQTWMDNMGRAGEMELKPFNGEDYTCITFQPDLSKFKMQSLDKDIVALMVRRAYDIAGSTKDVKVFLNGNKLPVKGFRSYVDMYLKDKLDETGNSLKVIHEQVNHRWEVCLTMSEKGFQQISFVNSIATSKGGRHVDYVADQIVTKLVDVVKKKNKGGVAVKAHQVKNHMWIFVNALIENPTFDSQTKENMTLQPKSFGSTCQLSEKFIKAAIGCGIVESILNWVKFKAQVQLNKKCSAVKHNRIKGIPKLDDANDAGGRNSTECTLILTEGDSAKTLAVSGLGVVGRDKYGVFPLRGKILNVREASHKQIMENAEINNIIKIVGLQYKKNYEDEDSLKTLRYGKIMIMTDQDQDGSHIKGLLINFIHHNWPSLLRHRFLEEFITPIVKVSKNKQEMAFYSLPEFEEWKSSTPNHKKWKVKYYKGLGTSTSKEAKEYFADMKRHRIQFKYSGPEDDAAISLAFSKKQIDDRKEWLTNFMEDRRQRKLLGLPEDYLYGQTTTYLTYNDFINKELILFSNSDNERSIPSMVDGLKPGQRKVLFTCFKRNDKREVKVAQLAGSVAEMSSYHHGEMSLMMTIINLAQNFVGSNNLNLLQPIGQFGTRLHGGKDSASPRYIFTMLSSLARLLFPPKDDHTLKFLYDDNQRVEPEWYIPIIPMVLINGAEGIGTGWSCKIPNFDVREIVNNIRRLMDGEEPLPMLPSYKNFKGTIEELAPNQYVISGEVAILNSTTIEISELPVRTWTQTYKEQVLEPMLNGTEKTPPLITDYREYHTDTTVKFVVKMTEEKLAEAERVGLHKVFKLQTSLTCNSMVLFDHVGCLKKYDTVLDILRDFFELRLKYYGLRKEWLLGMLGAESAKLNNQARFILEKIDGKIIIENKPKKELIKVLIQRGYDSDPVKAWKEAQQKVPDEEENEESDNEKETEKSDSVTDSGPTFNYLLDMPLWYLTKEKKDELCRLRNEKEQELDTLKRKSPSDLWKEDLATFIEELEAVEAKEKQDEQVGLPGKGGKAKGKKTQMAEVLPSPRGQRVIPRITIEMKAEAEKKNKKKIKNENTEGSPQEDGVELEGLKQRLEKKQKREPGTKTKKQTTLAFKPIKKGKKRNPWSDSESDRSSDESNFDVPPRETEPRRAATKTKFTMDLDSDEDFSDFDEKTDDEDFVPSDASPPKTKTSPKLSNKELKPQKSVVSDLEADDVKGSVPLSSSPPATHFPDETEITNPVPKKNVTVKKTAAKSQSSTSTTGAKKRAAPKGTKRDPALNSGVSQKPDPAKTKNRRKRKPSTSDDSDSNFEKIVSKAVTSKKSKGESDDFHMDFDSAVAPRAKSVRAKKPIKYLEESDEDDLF
Source text: When present, high molecular weight kDNA has not migrated from the loading well.
The enzyme assays used for determining Topo IIα inhibition was either the ATP-dependent decatenation of high molecular weight kDNA (kinetoplast) as substrate or the relaxation of supercoiled pBR322 each incorporating human Topo IIα (Topogen Inc. Columbus, Ohio) and following literature protocols (Fortune, J. M. et al., J. Biol. Chem., 273(28), 17643-50 1998; Muller, M. T. et al., Biochemistry, 27(22), 8369-79, 1988). The 2.5 Kd mini-circle product derived from the catenated substrate is resolved on an agarose gel with ethidium bromide staining after electrophoresis. Likewise, the relaxed form of pBR322 is resolved from the faster moving supercoiled form during electrophoresis.

[15] = biological target: TopoIIα-DNA covalent complex (Homo sapiens, UniProt P11388); assay: Topo IIα DNA covalent complex stabilization assay; type: biochemical; settings: SDS trapping, proteinase K, FIG. 5
Chain of TopoIIα-DNA covalent complex (P11388 whole entry, one chain of several): as the sequence (P11388 whole entry) above
Source text: (§3) To determine if the compound 320 stabilizes the TopoIIα-DNA covalent complex, cleavage intermediates are trapped by the addition of SDS to the reaction (Wilson Byl, J. A., et al., Biochemistry, 40, 712-718, 2001). After proteinase K digestion to digest any covalently bound Topo, the products are electrophoresed and stained with EtBr. The appearance of an additional band that is a linear form of the 2.5 Kb minicircle product is indicative of a compound's ability to stabilize the covalent complex.

[16] = biological target: T2, Topo I (Homo sapiens, UniProt P11387); assay: Topo I covalent complex stabilization test; type: biochemical; settings: similar tests as for Topo IIα
T2 sequence (P11387 1-765): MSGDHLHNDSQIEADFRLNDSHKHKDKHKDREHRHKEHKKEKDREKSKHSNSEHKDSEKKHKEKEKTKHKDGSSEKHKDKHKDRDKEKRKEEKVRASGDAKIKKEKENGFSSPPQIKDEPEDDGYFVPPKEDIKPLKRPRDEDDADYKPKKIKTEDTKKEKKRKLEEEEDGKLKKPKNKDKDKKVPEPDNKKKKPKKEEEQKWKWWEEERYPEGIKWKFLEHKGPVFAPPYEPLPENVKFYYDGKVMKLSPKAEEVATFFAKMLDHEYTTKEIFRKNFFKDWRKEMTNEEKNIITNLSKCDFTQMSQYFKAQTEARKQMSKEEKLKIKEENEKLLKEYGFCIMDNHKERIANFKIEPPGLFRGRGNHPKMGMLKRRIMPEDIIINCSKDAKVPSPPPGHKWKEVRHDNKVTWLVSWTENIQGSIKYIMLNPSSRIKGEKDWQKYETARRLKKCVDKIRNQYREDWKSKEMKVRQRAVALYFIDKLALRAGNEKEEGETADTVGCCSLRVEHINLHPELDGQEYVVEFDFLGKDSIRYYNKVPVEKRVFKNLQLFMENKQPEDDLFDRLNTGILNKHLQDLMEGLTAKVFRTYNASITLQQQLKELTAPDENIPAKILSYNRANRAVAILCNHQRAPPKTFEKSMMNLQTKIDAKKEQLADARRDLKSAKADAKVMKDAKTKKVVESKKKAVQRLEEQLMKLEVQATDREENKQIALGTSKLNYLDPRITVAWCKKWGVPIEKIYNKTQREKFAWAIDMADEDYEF
Source text: as §3

[17] = system: MCF-7; assay: Cell proliferation assay, MCF-7; type: cell-based; settings: Homo sapiens, MCF7; 48 hrs exposure, Alamar Blue, FIG. 6; no shift between MCF-7 and MCF-7/ADR; read-out: approximate IC50, cell proliferation
Procedure: (§4) The MCF-7 cell line, the MDR cell line, and the MCF-7/ADR cell line were used. Alamar Blue™ was used to quantitate cell viability.
The compounds listed in Table II were prepared using the procedures outlined in the above Examples.

[18] = system: MCF-7/ADR; assay: Cell proliferation assay, MDR line MCF-7/ADR; type: cell-based, human; settings: 48 hrs exposure; less potent in MCF-7/ADR
Source text: as §4

[19] = Acute toxicological study, i.p.; type: in vivo; settings: female CD-1 mice, n=3, seven days
Procedure: (§6) An acute toxicological study was performed for 320 prior to the xenograft study. Two groups (n=3) of female CD-1 mice were injected intraperitoneally (i.p.) with either 10 or 100 mg/Kg of 320 dissolved in 5% DMSO, 10% PEG400. […] A second MTD study was done by the intravascular (i.v.) route using 4 groups of CD-1 mice for the following: vehicle, 3, 10 and 30 mg/Kg injections which were to be given daily for days 1-5 and study duration of two weeks, at which point survivors would be euthanised.

[20] = mouse, in vivo, iv
Procedure: as §6

[21] = system: NCI-H460; assay: NCI-H460 human xenograft study in nude mice; settings: i.v., 320 25 mg/Kg days 1-5, etoposide 35 mg/Kg days 7, 10, 14; for anti-tumor activity with respect to final tumor volume: doxorubicin 5 mg/Kg days 7 and 14, day 28
Procedure: as §6
All injections were by the i.v. route; groups were 5 NCR nu/nu mice. The cell line NCI-H460 was used to produce the tumors that appeared by day 7. […] All survivors to day 28 were euthanised at this time and tumor volumes measured.

[22] = system: calf thymus DNA; assay: DNA-intercalator displacement assay (EtBr displacement); type: binding; settings: FIG. 4
Source text: The curve labeled “Hoechst” corresponds to Hoechst 33258. Controls are: 1) no EtBr (min. fluorescence) and 2) no compound (max. fluorescence).
(§5) Gel retardation assays were done on 320 and other biaryl/terphenyl acid compounds, to test for electrophoretic mobility shifts due to the presence of a substance that directly binds DNA.

[23] = system: pBR322 plasmid; assay: Gel retardation assay (electrophoretic mobility shift); type: binding
Source text: as §5

Row | Compound | IC50 [1] | IC50 [2] | IC50 [3] | IC50 [4] | IC50 [5] | IC50 [6] | IC50 [7] | IC50 [8] | IC50 [9] | IC50 [10] | IC50 [11] | IC50 [12] | IC50 [13] | further results
1 | O=C(Nc1cnccn1)c1ccc(Cl)c(-c2ccc(-c3ccccc3)cc2)c1 [Compound 5, 6″-Chloro-[1,1′;4′,1″]terphenyl-3″-carboxylic acid pyrazin-2-ylamide] | ≤ 1000 nM | ≤ 1000 nM | ≤ 1000 nM | ≤ 1000 nM | ≤ 1000 nM | ≤ 1000 nM | 1000 to 25000 nM | ≤ 1000 nM | ≤ 1000 nM | ≤ 1000 nM | ≤ 1000 nM | ≤ 1000 nM | – | –
2 | COc1ccc(NC(=O)c2ccc(Cl)c(-c3ccc(-c4ccccc4)cc3)c2)cn1 [Compound 8, 6-Chloro-[1,1′;4′,1″]terphenyl-3-carboxylic acid (6-methoxy-pyridin-3-yl)-amide] | ≤ 1000 nM | 1000 to 25000 nM | ≤ 1000 nM | ≤ 1000 nM | ≤ 1000 nM | ≤ 1000 nM | 1000 to 25000 nM | ≤ 1000 nM | ≤ 1000 nM | 1000 to 25000 nM | ≤ 1000 nM | > 25000 nM | ≤ 1000 nM | –
3 | O=C(Nc1ccncn1)c1ccc(Cl)c(-c2ccc(-c3ccccc3)cc2)c1 [Compound 37, 6-Chloro-[1,1′;4′,1″]terphenyl-3-carboxylic acid pyrimidin-4-ylamide] | 1000 to 25000 nM | ≤ 1000 nM | 1000 to 25000 nM | ≤ 1000 nM | 1000 to 25000 nM | 1000 to 25000 nM | > 25000 nM | > 25000 nM | ≤ 1000 nM | 1000 to 25000 nM | 1000 to 25000 nM | 1000 to 25000 nM | ≤ 1000 nM | –
4 | O=C(NC1CCNCC1)c1ccc(Cl)c(-c2ccc(-c3ccccc3)cc2)c1 [Compound 43, 6-Chloro-[1,1′;4′,1″]terphenyl-3-carboxylic acid piperidin-4-ylamide] | 1000 to 25000 nM | ≤ 1000 nM | 1000 to 25000 nM | ≤ 1000 nM | 1000 to 25000 nM | 1000 to 25000 nM | 1000 to 25000 nM | 1000 to 25000 nM | ≤ 1000 nM | 1000 to 25000 nM | 1000 to 25000 nM | 1000 to 25000 nM | ≤ 1000 nM | –
5 | CN(C)CCN(C(=O)c1ccc(Cl)c(-c2ccc(-c3ccccc3)cc2)c1)c1cccnc1 [Compound 52, 6-Chloro-[1,1′;4′,1″]terphenyl-3-carboxylic acid (2-dimethylamino-ethyl)-pyridin-3-yl-amide] | 1000 to 25000 nM | 1000 to 25000 nM | 1000 to 25000 nM | 1000 to 25000 nM | 1000 to 25000 nM | 1000 to 25000 nM | 1000 to 25000 nM | 1000 to 25000 nM | ≤ 1000 nM | 1000 to 25000 nM | 1000 to 25000 nM | 1000 to 25000 nM | 1000 to 25000 nM | –
6 | O=C(NCC1CCCO1)c1ccc(Cl)c(-c2ccc(-c3ccccc3)cc2)c1 (centres unmarked) [Compound 58, 6-Chloro-[1,1′;4′,1″]terphenyl-3-carboxylic acid (tetrahydro-furan-2-ylmethyl)-amide] | 1000 to 25000 nM | 1000 to 25000 nM | 1000 to 25000 nM | ≤ 1000 nM | 1000 to 25000 nM | 1000 to 25000 nM | 1000 to 25000 nM | 1000 to 25000 nM | ≤ 1000 nM | 1000 to 25000 nM | 1000 to 25000 nM | 1000 to 25000 nM | ≤ 1000 nM | –
7 | O=C(NC1(C(=O)O)Cc2ccccc2C1)c1ccc(Cl)c(-c2ccc(-c3ccccc3)cc2)c1 [Compound 320, 2-[(6″-Chloro-[1,1′;4′,1″]terphenyl-3″-carbonyl)-amino]-indan-2-carboxylic acid] | – | – | – | – | – | – | – | – | – | – | – | – | – | inhibition of Topo IIα decatenation [14]: complete inhibition; stabilization of the TopoIIα-DNA covalent complex (linear form of minicircle) [15]: does not stabilize the covalent complex; stabilization of the covalent complex in Topo I reactions [16]: no apparent stabilization of the covalent complex; IC50 [17]: ~30000 nM; shift in potency, resistant line MCF-7/ADR versus parent line MCF-7 [18]: no shift in potency; survival and side effects, acute toxicity ([19]; 10 mg/Kg (low dose)): all the low dose mice survived with no visible side effects; survival, acute toxicity ([19]; 100 mg/Kg (high dose)): Two mice in the high dose group survived; survival, MTD study [20]: All other animals survived to the end of the study; survival, MTD study ([20]; 30 mg/kg): Two animals in the highest dose group survived with one animal dying after 3 injections; initial tumor growth delay [21]: no initial growth delay; anti-tumor activity with respect to final tumor volume [21]: some final growth inhibition
8 | O=C(O)C1c2ccccc2CCN1C(=O)c1ccc(Cl)c(-c2ccc(-c3ccccc3)cc2)c1 (centres unmarked) [Compound 337, 2-(6″-Chloro-[1,1′;4′,1″]terphenyl-3″-carbonyl)-1,2,3,4-tetrahydro-isoquinoline-1-carboxylic acid] | – | – | – | – | – | – | – | – | – | – | – | – | – | displacement of EtBr (intercalator) from DNA [22]: lack of intercalator displacement
9 | CN1CCN(c2ccc3[nH]c(-c4ccc5[nH]c(-c6ccc(O)cc6)nc5c4)nc3c2)CC1 [Hoechst 33258] | – | – | – | – | – | – | – | – | – | – | – | – | – | IC50 of EtBr displacement [22]: low μM; displacement of EtBr (intercalator) from DNA [22]: clearly demonstrates displacement of EtBr
10 | COc1cccc2c1C(=O)c1c(O)c3c(c(O)c1C2=O)C[C@@](O)(C(=O)CO)C[C@@H]3O[C@H]1C[C@H](N)[C@H](O)[C@H](C)O1 [doxorubicin, reference compound] | – | – | – | – | – | – | – | – | – | – | – | – | – | inhibition of Topo IIα decatenation [14]: partial inhibition; mobility shift of pBR322 plasmid on gels [23]: Mobility shifts were seen; shift in potency, resistant line MCF-7/ADR versus parent line MCF-7 [18]: 100 fold; anti-tumor activity with respect to final tumor volume [21]: least efficacy
11 | COc1cc([C@@H]2c3cc4c(cc3[C@@H](O[C@@H]3O[C@@H]5CO[C@@H](C)O[C@H]5[C@H](O)[C@H]3O)[C@H]3COC(=O)[C@H]23)OCO4)cc(OC)c1O [etoposide] | – | – | – | – | – | – | – | – | – | – | – | – | – | stabilization of the TopoIIα-DNA covalent complex (linear form of minicircle) [15]: the linear form is present; initial tumor growth delay [21]: greatest initial growth delay; anti-tumor activity with respect to final tumor volume [21]: greatest anti-tumor activity
